What was measured:
Type in all cases: in vivo
Amaranthus retroflexus [1] = test: Pre-emergence herbicidal action (Experimental Part 1, B); conditions: scored visually after about 3 weeks
Text: (§1) Seeds of monocotyledonous and dicotyledonous weed plants and crop plants were placed in plastic or organic planting pots and covered with soil. The compounds of the invention, formulated in the form of wettable powders (WP) or as emulsion concentrates (EC), were then applied onto the surface of the covering soil as aqueous suspension or emulsion with addition of 0.5% additive at a water application rate of 600 l/ha (converted). After the treatment, the pots were placed in a greenhouse and kept under good growth conditions for the test plants. After about 3 weeks, the effect of the preparations was scored visually in comparison with untreated controls as percentages. For example, 100% activity=the plants have died, 0% activity=like control plants. Tables B1 to B14 below show the effects of selected compounds of the general formula (I) according to Tables I.1 to I.116 on various harmful plants and an application rate corresponding to 1280 g/ha or 320 g/ha, which were obtained by the experimental procedure mentioned above.

Polygonum convolvulus [2] = test: as above; conditions: scored visually after about 3 weeks
Text: as §1

Alopecurus myosuroides [3] = test: as above; conditions: scored visually after about 3 weeks
Text: as §1

Stellaria media [4] = test: as above; conditions: scored visually after about 3 weeks
Text: as §1

Abutilon theophrasti [5] = test: as above; conditions: scored visually after about 3 weeks
Text: as §1

Avena fatua = test: as above; conditions: scored visually after about 3 weeks
Text: as §1

Matricaria inodora [6] = test: as above; conditions: scored visually after about 3 weeks
Text: as §1

Setaria viridis [7] = test: as above; conditions: scored visually after about 3 weeks
Text: as §1

Viola tricolor [8] = test: as above; conditions: scored visually after about 3 weeks
Text: as §1

Amaranthus retroflexus [9] = test: Post-emergence herbicidal action (Experimental Part 1, A); conditions: about 3 weeks after treatment, 100% = plants have died, 0% = like control plants
Description: (§2) Seeds of monocotyledonous and dicotyledonous weeds and crop plants were placed in sandy loam in plastic or wood-fiber pots, covered with soil and cultivated in a greenhouse under controlled growth conditions. 2 to 3 weeks after sowing, the test plants were treated at the one-leaf stage. The compounds of the invention, formulated in the form of wettable powders (WP) or as emulsion concentrates (EC), were then sprayed onto the green parts of the plants as aqueous suspension or emulsion with addition of 0.5% additive at a water application rate of 600 l/ha (converted). After the test plants had been kept in the greenhouse under optimum growth conditions for about 3 weeks, the activity of the preparations was rated visually in comparison to untreated controls. For example, 100% activity=the plants have died, 0% activity=like control plants. Tables A1 to A14 below show the effects of selected compounds of the general formula (I) according to Tables I.1 to I.116 on various harmful plants and an application rate corresponding to 1280 g/ha or 320 g/ha, which were obtained by the experimental procedure mentioned above.

Polygonum convolvulus [10] = test: as above; conditions: rated visually after about 3 weeks
Description: as §2

Stellaria media [11] = test: as above; conditions: rated visually after about 3 weeks
Description: as §2

Abutilon theophrasti [12] = test: as above; conditions: about 3 weeks after treatment, 100% = plants have died, 0% = like control plants
Description: as §2

Matricaria inodora [13] = test: as above; conditions: rated visually after about 3 weeks
Description: as §2

Ipomoea purpurea [14] = test: as above; conditions: rated visually after about 3 weeks
Description: as §2

Setaria viridis [15] = test: as above; conditions: about 3 weeks after treatment, 100% = plants have died, 0% = like control plants
Description: as §2

Veronica persica = test: as above; conditions: about 3 weeks after treatment, 100% = plants have died, 0% = like control plants
Description: as §2

Viola tricolor [16] = test: as above; conditions: rated visually after about 3 weeks
Description: as §2

Ipomoea purpurea [17] = test: Pre-emergence herbicidal action (Experimental Part 1, B); conditions: application rate 320 g/ha, scored visually after about 3 weeks
Text: as §1

Lolium rigidum = test: as above; conditions: application rate 1280 g/ha, scored visually after about 3 weeks
Text: as §1

Echinochloa crus-galli [18] = test: as above; conditions: application rate 320 g/ha, scored visually after about 3 weeks
Text: as §1

Alopecurus myosuroides [19] = test: Post-emergence herbicidal action (Experimental Part 1, A); conditions: application rate 320 g/ha, about 3 weeks after treatment, 100% = plants have died, 0% = like control plants
Description: as §2

Echinochloa crus-galli [20] = test: as above; conditions: application rate 320 g/ha, about 3 weeks after treatment, 100% = plants have died, 0% = like control plants
Description: as §2

Compound: CCOC(=O)OC1C=C(C)C(=O)N1c1cc(C(F)(F)F)c(Cl)cn1 (centres unmarked) [I.12-451]
- Amaranthus retroflexus, herbicidal activity (Amaranthus retroflexus [1]; application rate 320 g/ha): 100%
- Amaranthus retroflexus, herbicidal activity (Amaranthus retroflexus [1]; application rate 1280 g/ha): 100%
- Polygonum convolvulus, herbicidal activity (Polygonum convolvulus [2]; application rate 1280 g/ha): 100%
- Alopecurus myosuroides, herbicidal activity (Alopecurus myosuroides [3]; application rate 1280 g/ha): 90%
- Stellaria media, herbicidal activity (Stellaria media [4]; application rate 320 g/ha): 100%
- Stellaria media, herbicidal activity (Stellaria media [4]; application rate 1280 g/ha): 100%
- Abutilon theophrasti, herbicidal activity (Abutilon theophrasti [5]; application rate 1280 g/ha): 100%
- Avena fatua, herbicidal activity (Avena fatua; application rate 1280 g/ha): 90%
- Matricaria inodora, herbicidal activity (Matricaria inodora [6]; application rate 1280 g/ha): 90%
- Setaria viridis, herbicidal activity (Setaria viridis [7]; application rate 320 g/ha): 90%
- Setaria viridis, herbicidal activity (Setaria viridis [7]; application rate 1280 g/ha): 100%
- Viola tricolor, herbicidal activity (Viola tricolor [8]; application rate 320 g/ha): 100%
- Viola tricolor, herbicidal activity (Viola tricolor [8]; application rate 1280 g/ha): 100%
- herbicidal activity on Amaranthus retroflexus (visual rating vs untreated controls) (Amaranthus retroflexus [9]; application rate 320 g/ha): 100%
- herbicidal activity on Amaranthus retroflexus (visual rating vs untreated controls) (Amaranthus retroflexus [9]; application rate 1280 g/ha): 100%
- Polygonum convolvulus, herbicidal activity (Polygonum convolvulus [10]; application rate 320 g/ha): 100%
- Polygonum convolvulus, herbicidal activity (Polygonum convolvulus [10]; application rate 1280 g/ha): 100%
- Stellaria media, herbicidal activity (Stellaria media [11]; application rate 320 g/ha): 100%
- Stellaria media, herbicidal activity (Stellaria media [11]; application rate 1280 g/ha): 100%
- herbicidal activity on Abutilon theophrasti (visual rating vs untreated controls) (Abutilon theophrasti [12]; application rate 320 g/ha): 100%
- herbicidal activity on Abutilon theophrasti (visual rating vs untreated controls) (Abutilon theophrasti [12]; application rate 1280 g/ha): 100%
- Matricaria inodora, herbicidal activity (Matricaria inodora [13]; application rate 320 g/ha): 90%
- Matricaria inodora, herbicidal activity (Matricaria inodora [13]; application rate 1280 g/ha): 100%
- Ipomoea purpurea, herbicidal activity (Ipomoea purpurea [14]; application rate 320 g/ha): 100%
- Ipomoea purpurea, herbicidal activity (Ipomoea purpurea [14]; application rate 1280 g/ha): 100%
- herbicidal activity on Setaria viridis (visual rating vs untreated controls) (Setaria viridis [15]; application rate 320 g/ha): 100%
- herbicidal activity on Setaria viridis (visual rating vs untreated controls) (Setaria viridis [15]; application rate 1280 g/ha): 100%
- herbicidal activity on Veronica persica (visual rating vs untreated controls) (Veronica persica; application rate 1280 g/ha): 100%
- Viola tricolor, herbicidal activity (Viola tricolor [16]; application rate 320 g/ha): 100%
- Viola tricolor, herbicidal activity (Viola tricolor [16]; application rate 1280 g/ha): 100%

Compound: CCOC(=O)OC1C(C)=CC(=O)N1c1cc(C(C)(C)C)on1 (centres unmarked) [I.11-162, 5-Ethoxycarbonyloxy-4-methyl-1-(5-tert-butyl-1,2-isoxazol-3-yl)-1,5-dihydro-2H-pyrrol-2-one]
- Amaranthus retroflexus, herbicidal activity (Amaranthus retroflexus [1]; application rate 320 g/ha): 100%
- Polygonum convolvulus, herbicidal activity (Polygonum convolvulus [2]; application rate 320 g/ha): 100%
- Alopecurus myosuroides, herbicidal activity (Alopecurus myosuroides [3]; application rate 320 g/ha): 100%
- Stellaria media, herbicidal activity (Stellaria media [4]; application rate 320 g/ha): 100%
- Abutilon theophrasti, herbicidal activity (Abutilon theophrasti [5]; application rate 320 g/ha): 100%
- Avena fatua, herbicidal activity (Avena fatua; application rate 320 g/ha): 90%
- Matricaria inodora, herbicidal activity (Matricaria inodora [6]; application rate 320 g/ha): 100%
- Ipomoea purpurea, herbicidal activity (Ipomoea purpurea [17]): 90%
- Setaria viridis, herbicidal activity (Setaria viridis [7]; application rate 320 g/ha): 100%
- Lolium rigidum, herbicidal activity (Lolium rigidum): 90%
- Echinochloa crus-galli, herbicidal activity (Echinochloa crus-galli [18]): 100%
- Viola tricolor, herbicidal activity (Viola tricolor [8]; application rate 320 g/ha): 100%
- herbicidal activity on Amaranthus retroflexus (visual rating vs untreated controls) (Amaranthus retroflexus [9]; application rate 320 g/ha): 100%
- Polygonum convolvulus, herbicidal activity (Polygonum convolvulus [10]; application rate 320 g/ha): 100%
- herbicidal activity on Alopecurus myosuroides (visual rating vs untreated controls) (Alopecurus myosuroides [19]): 100%
- Stellaria media, herbicidal activity (Stellaria media [11]; application rate 320 g/ha): 100%
- herbicidal activity on Abutilon theophrasti (visual rating vs untreated controls) (Abutilon theophrasti [12]; application rate 320 g/ha): 100%
- Matricaria inodora, herbicidal activity (Matricaria inodora [13]; application rate 320 g/ha): 100%
- Ipomoea purpurea, herbicidal activity (Ipomoea purpurea [14]; application rate 320 g/ha): 90%
- herbicidal activity on Setaria viridis (visual rating vs untreated controls) (Setaria viridis [15]; application rate 320 g/ha): 100%
- herbicidal activity on Veronica persica (visual rating vs untreated controls) (Veronica persica; application rate 320 g/ha): 100%
- herbicidal activity on Echinochloa crus-galli (visual rating vs untreated controls) (Echinochloa crus-galli [20]): 90%
- Viola tricolor, herbicidal activity (Viola tricolor [16]; application rate 320 g/ha): 100%

Source: patent US20200079765A1, “SUBSTITUTED HETEROARYL PYRROLONES AND SALTS THEREOF AND USE THEREOF AS HERBICIDAL ACTIVE SUBSTANCES” (Bayer CropScience Aktiengesellschaft, priority 2016, published 2020)
